Assays:
[1] = molecular target: T1, BA/F3-FLT3-ITD + D835Y cells (Homo sapiens, UniProt P36888, D835Y, cells depend on it, form not given); experiment: Cell proliferation assay (CellTiter-Glo), engineered BA/F3 cells; format: cell-based, murine; conditions: BaF3 FLT3 ITD/D835Y cells, 3d-Growth; read-out: BaF3_FLT3 ITD/D835Y 3d-Growth: IC50
T1 sequence (P36888 1-993 D835Y): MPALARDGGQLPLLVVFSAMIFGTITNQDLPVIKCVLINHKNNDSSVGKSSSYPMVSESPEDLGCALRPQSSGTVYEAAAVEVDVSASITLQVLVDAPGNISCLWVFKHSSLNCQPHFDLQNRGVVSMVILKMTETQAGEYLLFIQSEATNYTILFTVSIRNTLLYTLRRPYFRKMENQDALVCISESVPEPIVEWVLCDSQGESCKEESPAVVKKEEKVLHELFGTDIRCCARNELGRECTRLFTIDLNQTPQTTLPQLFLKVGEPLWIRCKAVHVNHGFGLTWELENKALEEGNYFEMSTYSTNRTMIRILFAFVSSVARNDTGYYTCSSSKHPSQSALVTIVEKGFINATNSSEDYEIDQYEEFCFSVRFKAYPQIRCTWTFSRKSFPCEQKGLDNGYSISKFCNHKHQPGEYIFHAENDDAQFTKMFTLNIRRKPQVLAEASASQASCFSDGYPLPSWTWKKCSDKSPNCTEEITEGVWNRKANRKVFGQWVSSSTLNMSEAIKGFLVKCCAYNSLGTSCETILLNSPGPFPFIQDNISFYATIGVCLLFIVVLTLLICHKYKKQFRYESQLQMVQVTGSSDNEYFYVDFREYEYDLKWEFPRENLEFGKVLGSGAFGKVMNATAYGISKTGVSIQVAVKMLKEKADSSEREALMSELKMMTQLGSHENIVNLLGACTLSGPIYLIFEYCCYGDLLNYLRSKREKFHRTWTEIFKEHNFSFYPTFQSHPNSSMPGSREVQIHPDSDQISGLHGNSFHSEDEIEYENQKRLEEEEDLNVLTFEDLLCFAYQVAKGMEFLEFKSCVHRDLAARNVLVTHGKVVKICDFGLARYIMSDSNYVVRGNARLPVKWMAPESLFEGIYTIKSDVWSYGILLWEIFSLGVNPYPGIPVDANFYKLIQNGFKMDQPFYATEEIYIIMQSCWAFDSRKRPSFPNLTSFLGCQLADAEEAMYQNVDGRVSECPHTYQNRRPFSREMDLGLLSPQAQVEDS
Source text: The FLT3 inhibitors may be assessed using the MOLM-14, Acute Myeloid Leukemia cell line that endogenously expresses FLT3 ITD or derivatives of the human FLT3 AML cell line which acquired the D835Y (activation loop) of F691L (gatekeeper) mutation after selection in escalating doses of the FLT3 Inhibitor AC220. FLT3 inhibitors may also be assessed using cells that are engineered to express mutant FLT3. For engineered cells, murine Ba/F3 cells were transfected with full-length FLT3 ITD/D835Y mutations. The parental BA/F3 cells are dependent upon Interleukin-3 (IL-3) for survival, and introduction of the FLT3 constructs rendered these cells dependent upon FLT3 kinase activity when cultured in the absences of IL-3. Engineered BA/F3 cell growth assays can be performed in either the […] of IL-3, to assess the compound inhibition of FLT3 or to detect the presence of off-target activity, respectively. Inhibitors of FLT3 kinase activity reduce or eliminate the FLT3 oncogenic signaling, resulting in reduced cell proliferation. This inhibition is measured as a function of compound concentration to asses IC50 values.
Cell lines used in proliferation assays are as follows in Table 3:
Cells were seeded at 1×10^4 cells per well of a 96 well cell culture plate in 50 μl of cell culture medium. Compounds were dissolved in DMSO, typically at a concentration of 0.5 mM and were serially diluted 1:3 for a total of eight points and added to the cells to final concentrations of […], 0.0041, 0.0014 and 0.00046 μM in 100 μl cell culture medium (final concentration 0.2% DMSO). […] The cells were incubated at 37° C., 5% CO2 for three days. CellTiter-Glo Buffer (Promega Cell Viability Assay catalog #G7573) and substrate were equilibrated to room temperature, and enzyme/substrate Recombinant Firefly Luciferase/Beetle Luciferin was reconstituted. The cell plates were equilibrated to room temperature for 30 minutes, then lysed by addition of an equivalent volume of the Celltiter-Glo Reagent. The plate was mixed for 10 minutes on a plate shaker to lyse the cells. The plates were read on a Tecan M1000 using Luminescence protocol modified to read 0.1 s per well. The luminescence reading assesses the ATP content, which correlates directly with cell number such that the reading as a function of compound concentration was used to determine the IC50 value.

c-KIT = molecular target: T2, c-KIT (Homo sapiens, UniProt P10721); experiment: AlphaScreen kinase assay with recombinant enzyme, c-KIT; format: biochemical; conditions: 100ATP, 8pt, GMean
T2 construct: purchased Millipore 14-559K
T2 sequence (P10721 26-976): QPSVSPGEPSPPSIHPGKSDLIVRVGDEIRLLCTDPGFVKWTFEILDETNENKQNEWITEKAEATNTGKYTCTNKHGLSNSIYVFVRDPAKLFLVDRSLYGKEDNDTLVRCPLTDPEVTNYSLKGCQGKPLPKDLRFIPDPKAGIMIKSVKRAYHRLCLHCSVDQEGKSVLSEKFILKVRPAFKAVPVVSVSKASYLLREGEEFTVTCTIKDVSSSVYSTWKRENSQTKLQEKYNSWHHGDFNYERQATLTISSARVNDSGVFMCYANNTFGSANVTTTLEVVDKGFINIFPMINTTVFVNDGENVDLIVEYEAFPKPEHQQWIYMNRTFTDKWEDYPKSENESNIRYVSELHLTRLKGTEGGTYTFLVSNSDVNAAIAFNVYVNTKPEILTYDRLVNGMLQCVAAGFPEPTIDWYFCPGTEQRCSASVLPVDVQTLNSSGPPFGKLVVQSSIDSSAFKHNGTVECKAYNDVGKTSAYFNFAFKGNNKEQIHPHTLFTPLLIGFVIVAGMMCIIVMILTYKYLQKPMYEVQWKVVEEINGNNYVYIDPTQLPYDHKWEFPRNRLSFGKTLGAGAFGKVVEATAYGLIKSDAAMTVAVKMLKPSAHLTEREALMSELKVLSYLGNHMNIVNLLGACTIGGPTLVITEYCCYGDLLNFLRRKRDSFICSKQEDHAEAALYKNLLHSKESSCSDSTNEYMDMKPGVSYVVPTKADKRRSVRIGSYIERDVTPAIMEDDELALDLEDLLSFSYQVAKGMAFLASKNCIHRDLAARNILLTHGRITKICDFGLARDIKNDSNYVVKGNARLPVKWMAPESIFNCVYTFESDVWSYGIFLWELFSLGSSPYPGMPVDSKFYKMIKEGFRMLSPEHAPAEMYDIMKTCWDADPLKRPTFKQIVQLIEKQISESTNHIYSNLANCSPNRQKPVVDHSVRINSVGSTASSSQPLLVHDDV
Experimental: In order to determine the effect of compounds on FLT3 catalytic activity, kinase assays using recombinant enzymes and AlphaScreen® technology have been established. The catalytic activity of c-kit activity was also measured to determine selectivity of the compounds. When the kinases are catalytically active, they phosphorylate a biotinylated peptide substrate on tyrosine residues. Using AlphaScreen® technology, the ability of the compounds to affect the catalytic activity of the kinases can be measured quantitatively. The peptide substrate is immobilized by the AlphaScreen® Streptavidin Donor beads and, upon phosphorylation by a tyrosine kinase, can bind to AlphaScreen® Anti-Phosphotyrosine (PY20) Acceptor beads. Upon excitation of these beads with laser light at 680 nm, singlet oxygen is produced. This singlet oxygen is rapidly quenched, unless the AlphaScreen® Anti-Phosphotyrosine (PY20) Acceptor beads are in close proximity, in which case a proximity signal can be measured at 580 nm. In the presence of catalytic activity, there is a very strong proximity signal. Selective kinase inhibitors affect a decrease in this proximity signal through a decrease in tyrosine phosphorylation of the peptide substrate.
The assay was performed as summarized below.
Poly (Glu4-Tyr) Peptide, biotin conjugate [Biotin-GG(EEEEY)10EE] (SEQ ID NO: 4)
Final concentration=30 nM
Final concentration for IC50 determination=10 μM (FLT3-D835Y or FLT3-ITD) or 100 μM (c-KIT)
AlphaScreen® Phosphotyrosine (PY20) Assay Kit
Final concentration=10 μg/mL
Dilute compounds in DMSO to 20× final concentration.
Add 1 μl of compound to each well of 384 well reaction plate (Perkin Elmer #6005359).
Mix enzyme and Poly (Glu4-Tyr) Peptide substrate at 1.33× final concentration in assay buffer.
Mix ATP at 5× final concentration in assay buffer.
Add 15 μL enzyme/substrate mixture to the reaction plate.
Add 4 μL of ATP to the reaction plate.
Mix Streptavidin Donor beads at 6× final concentration in Stop/Detection buffer.
Add 5 μL Streptavidin Donor beads to the reaction plate. Centrifuge 1 minute, shake to mix, and incubate at room temperature for 20 minutes.
Mix Anti-Phosphotyrosine (PY20) Acceptor beads at 6× final concentration in Stop/Detection buffer.
Add 5 μL Anti-Phosphotyrosine (PY20) beads to the reaction plate.
Centrifuge 1 minute, shake to mix, and incubate at room temperature for 60 minutes.
Read plate on Wallac EnVision™ 2103 Multilabel Reader.

GI50 [1]	IC50 (c-KIT)	SMILES
0.0001 to 10 µM	50 to 100 µM	O=C(c1cccc(-c2cnc3[nH]c(-c4ccccc4)cc3c2)n1)N1CCC(F)(F)C1 [Compound P-0093, (3,3-difluoropyrrolidin-1-yl)-[6-(2-phenyl-1H-pyrrolo[2,3-b]pyridin-5-yl)-2-pyridyl]methanone]
0.0001 to 10 µM	10 to 50 µM	COC1CCN(C(=O)c2cccc(-c3cnc4[nH]c(-c5ccccc5)cc4c3)n2)C1 (stereo not drawn) [Compound P-0095, (3-methoxypyrrolidin-1-yl)-[6-(2-phenyl-1H-pyrrolo[2,3-b]pyridin-5-yl)-2-pyridyl]methanone]
0.0001 to 10 µM	10 to 50 µM	CNC(=O)C1CCN(C(=O)c2cccc(-c3cnc4[nH]c(-c5ccccc5)cc4c3)n2)C1 (stereo not drawn) [Compound P-0096, N-methyl-1-[6-(2-phenyl-1H-pyrrolo[2,3-b]pyridin-5-yl)pyridine-2-carbonyl]pyrrolidine-3-carboxamide]
0.0001 to 10 µM	0.0001 to 10 µM	O=C(c1cccc(-c2cnc3[nH]c(-c4ccccc4)cc3c2)n1)N1CCC(n2ccnc2)C1 (stereo not drawn) [Compound P-0097, (3-imidazol-1-ylpyrrolidin-1-yl)-[6-(2-phenyl-1H-pyrrolo[2,3-b]pyridin-5-yl)-2-pyridyl]methanone]
0.0001 to 10 µM	50 to 100 µM	N#CCCNC(=O)c1cccc(-c2cnc3[nH]c(-c4ccccc4)cc3c2)n1 [Compound P-0099, N-(2-cyanoethyl)-6-(2-phenyl-1H-pyrrolo[2,3-b]pyridin-5-yl)pyridine-2-carboxamide]
0.0001 to 10 µM	10 to 50 µM	CC(C)(C#N)CNC(=O)c1cccc(-c2cnc3[nH]c(-c4ccccc4)cc3c2)n1 [Compound P-0100, N-(2-cyano-2-methyl-propyl)-6-(2-phenyl-1H-pyrrolo[2,3-b]pyridin-5-yl)pyridine-2-carboxamide]
0.0001 to 10 µM	10 to 50 µM	N#CC1CCN(C(=O)c2cccc(-c3cnc4[nH]c(-c5ccccc5)cc4c3)n2)C1 (stereo not drawn) [Compound P-0105, 1-[6-(2-phenyl-1H-pyrrolo[2,3-b]pyridin-5-yl)pyridine-2-carbonyl]pyrrolidine-3-carbonitrile]
0.0001 to 10 µM	0.0001 to 10 µM	CN[C@@H]1CCN(C(=O)c2ccc(-c3cnc4[nH]c(-c5ccccc5)cc4c3)s2)C1 [Compound P-0106, [(3R)-3-(methylamino)pyrrolidin-1-yl]-[5-(2-phenyl-1H-pyrrolo[2,3-b]pyridin-5-yl)-2-thienyl]methanone]
0.0001 to 10 µM	50 to 100 µM	CS(=O)(=O)N1CCC(NS(=O)(=O)c2cccc(-c3cnc4[nH]c(-c5ccccc5)cc4c3)n2)C1 (stereo not drawn) [Compound P-0107, N-(1-methylsulfonylpyrrolidin-3-yl)-6-(2-phenyl-1H-pyrrolo[2,3-b]pyridin-5-yl)pyridine-2-sulfonamide]
0.0001 to 10 µM	50 to 100 µM	O=S(=O)(NC1CC1)c1cccc(-c2cnc3[nH]c(-c4ccccc4)cc3c2)n1 [Compound P-0109, N-cyclopropyl-6-(2-phenyl-1H-pyrrolo[2,3-b]pyridin-5-yl)pyridine-2-sulfonamide]
0.0001 to 10 µM		N#CC1(NC(=O)c2cccc(-c3cnc4[nH]c(-c5ccccc5)cc4c3)n2)CC1 [Compound P-0111, N-(1-cyanocyclopropyl)-6-(2-phenyl-1H-pyrrolo[2.3-b]pyridin-5-yl]pyridine-2-carboxamide]
0.0001 to 10 µM		N#CC1CCN(S(=O)(=O)c2cccc(-c3cnc4[nH]c(-c5ccccc5)cc4c3)n2)C1 (stereo not drawn) [Compound P-0121, 1-[[6-(2-phenyl-1H-pyrrolo[2,3-b]pyridin-5-yl)-2-pyridyl]sulfonyl]pyrrolidine-3-carbonitrile]
0.0001 to 10 µM		N#C[C@@H]1CCN(C(=O)c2cccc(-c3cnc4[nH]c(-c5ccccc5)cc4c3)n2)C1 [Compound P-0122, (3R)-1-[6-(2-phenyl-1H-pyrrolo[2,3-b]pyridin-5-yl)pyridine-2-carbonyl]pyrrolidine-3-carbonitrile]
0.0001 to 10 µM		N#CCCNC(=O)c1cccc(-c2cnc3[nH]c(-c4ccccc4)c(Cl)c3c2)n1 [Compound P-0125, 6-(3-chloro-2-phenyl-1H-pyrrolo[2,3-b]pyridin-5-yl)-N-(2-cyanoethyl)pyridine-2-carboxamide]
0.0001 to 10 µM		CC(C)(C#N)CNC(=O)c1cccc(-c2cnc3[nH]c(-c4ccccc4)c(Br)c3c2)n1 [Compound P-0126, 6-(3-bromo-2-phenyl-1H-pyrrolo[2,3-b]pyridin-5-yl)-N-(2-cyano-2-methyl-propyl)pyridine-2-carboxamide]
0.0001 to 10 µM		CC(C)(C#N)CNC(=O)c1cccc(-c2cnc3[nH]c(-c4ccccc4)c(I)c3c2)n1 [Compound P-0127, N-(2-cyano-2-methyl-propyl)-6-(3-iodo-2-phenyl-1H-pyrrolo[2,3-b]pyridin-5-yl)pyridine-2-carboxamide]
	50 to 100 µM	CC(C)(C#N)NC(=O)c1cccc(-c2cnc3[nH]c(-c4cnn(C(F)F)c4)cc3c2)n1 [Compound P-0164, N-(2-cyanopropan-2-yl)-6-(2-(1-(difluoromethyl)-1H-pyrazol-4-yl)-1H-pyrrolo[2,3-b]pyridin-5-yl)picolinamide]

From patent US9938273B2 (Plexxikon Inc., priority 2015, dated 2018)
